Results published in patent US20100273167A1, “METHODS FOR DETERMINING PRENATAL ALCOHOL EXPOSURE” (priority 2009, published 2010).
Values joined by “and” are separate entries in the source; they are usually repeats but may differ in a detail not shown here. Equal entries are not always repeated. Where two headings read alike, the source gives them in different places.

What was measured:
c-kit = conditions: in vitro alcohol exposure of AFSC
Human AFSC [1] = conditions: 48 hours
Procedure: Human AFSC were seeded at 3,000 cells/cm^2 and maintained in culture as described previously (De Coppi et al., Isolation of amniotic stem cell lines with potential for therapy. Nat Biotechnol. 2007; 25:100-106). AFSC were grown in α-MEM medium (Gibco, Invitrogen) containing 15% ES-FBS, 1% glutamine, and 1% penicillin/streptomycin (Gibco), supplemented with 18% Chang B and 2% Chang C (Irvine Scientific) at 37° C. with 5% CO2 atmosphere. For dose-dependent studies on cell growth and viability, AFSC were treated with 25 mM, 50 mM, 75 mM, and 100 mM ethanol (Sigma-Aldrich, St. Louis, Mo.), and sealed with parafilm with media being replaced every 24 hours.
Forty-eight hours after seeding, ethanol was added to the media and parafilm sealed to prevent evaporation. Control groups were not treated with ethanol but otherwise treated identically. Proliferation rate was determined by measuring the number of AFSC after 48 hours of various ethanol concentrations. Cell number was measured using a Coulter counter. Cell viability was determined by propidium iodine (PI) exclusion. AFSC were dissociated by 0.05% trypsin/EDTA (Gibco), centrifuged at 1,500 RPM for 5 minutes, and resuspended in 1 ml of PBS in 15 ml polypropylene tubes. 50 μl of PI, […], was added to each tube and incubated for 1 hour at room temperature. Cells were centrifuged, supernatant removed, and washed twice with a wash buffer. Samples were analyzed by flow cytometry using the FL-1 channel.

Human AFSC [2] = test system: Human AFSC
Procedure: (§1) Human AFSC were induced to differentiate into osteogenic cell types as described previously (De Coppi et al., Isolation of amniotic stem cell lines with potential for therapy. Nat Biotechnol. 2007; 25:100-106). Briefly, AFSC was cultured in DMEM low glucose with 10% FBS supplemented with 100 nM dexamethasone (Sigma-Aldrich), 10 mM beta-glycerophosphate (Sigma-Aldrich) and 0.05 mM ascorbic acid-2-phosphate (Wako Chemicals, Irving, Tex.). Cells were grown to confluency and then treated with ethanol for the first 48 hours of osteogenic differentiation to control for ethanol's antiproliferative effect. Cell number was determined after 24 and 48 hours of ethanol and bone differentiation.

[3] = over a period of 24 hours, parafilm sealed
Human AFSC [4] = conditions: 25 mM to 100 mM ethanol
Procedure: Forty-eight hours after seeding, ethanol was added to the media and parafilm sealed to prevent evaporation. Control groups were not treated with ethanol but otherwise treated identically. […] Cell number was measured using a Coulter counter. Cell viability was determined by propidium iodine (PI) exclusion. AFSC were dissociated by 0.05% trypsin/EDTA (Gibco), centrifuged at 1,500 RPM for 5 minutes, and resuspended in 1 ml of PBS in 15 ml polypropylene tubes. 50 μl of PI, a nucleotide analogue, was added to each tube and incubated for 1 hour at room temperature. Cells were centrifuged, supernatant removed, and washed twice with a wash buffer. Samples were analyzed by flow cytometry using the FL-1 channel.

[5] = test system: alkaline phosphatase activity in AFSC; conditions: 100 mM ethanol at day 8 (midpoint) of osteogenic differentiation for 48 hours
Procedure: as §1
Alkaline phosphatase activity was measured using p-nitrophenyl phosphate liquid substrate system (Sigma). Cells grown in 24-well plates were rinsed in PBS and incubated with 0.15% Triton X-100 for 30 mins. Two hundred uL of p-nitrophenyl phosphate solution was added to the Triton-X 100 solution. Cells were incubated in the dark for 1 hour and read spectrophotometrically at 405 nm.

osteopontin = conditions: 100 mM ethanol
Procedure: Total RNA was isolated from AFSC using PerfectPure RNA Cultured Cell Kit (5 Prime) in accordance with the manufacturer's protocol. Following the procedure, DNA digestion was included as recommended by the supplier to eliminate the contamination of genomic DNA. Quality of total RNA was assessed by the spectrophotometric ratio of 260/280. For the reverse-transcriptase reaction, SuperscriptII reverse transcription reagents (Invitrogen) were used. Briefly, 1 μg of RNA was converted to cDNA. PCR amplification was performed with TaqMan Universal Master Mix (Applied Biosystems). Reactions were performed in duplicate, containing 1 μl of cDNA, 1.25 μl probe, 12 μl Master Mix, 10 μl DI H20 and were analyzed in a 96-well optical reaction plate (Applied Biosystems). Reactions were amplified and quantified using an ABI 7700 sequence detectors and manufacturer's software (Applied Biosystems). On demand fluorescent probes for the following genes: β-actin and osteopontin. The threshold cycle (Ct) indicates the fractional cycle number at which the amount of amplified target reaches a defined threshold. ΔCt was obtained by subtracting the Ct values of endogenous controls (β-actin) from the Ct values of the target genes.

[6] = test system: Human AFSC gene expression; conditions: 100 mM ethanol, 48 hours
Procedure: Microarray Analyses. Two microarray analyses were performed on AFSC sealed with parafilm for 48 hours with or without 100 mM of ethanol. Fragmented antisense cRNA was used for hybridizing to human U133 A arrays (Affymetrix, Inc. Santa Clara, Calif., USA) at the Core Genomic Facility of Wake Forest University School of Medicine.
Raw CEL files were provided by the Microarray Core Facility of the Wake Forest University School of Medicine and were then analyzed with a software package AffylmGUI (Affymetrix LIMMA, Linear Models for Microarray Data, Graphical User Interfaces) (Wettenhall et al., limmaGUI: a graphical user interface for linear modeling of microarray data. Bioinformatics. 2004; 20:3705-3706; Wettenhall et al., affylmGUI: a graphical user interface for linear modeling of single channel microarray data. Bioinformatics. 2006; 22:897-899). Within AffylmGUI, gene expression values were summarized with RMA. RMA adjusts for background noise, performs a quantile normalization, transforms the data into log base 2, and then summarizes the multiple probes into one intensity (Bolstad et al., A comparison of normalization methods for high density oligonucleotide array data based on variance and bias. Bioinformatics. 2003; 19:185-193; Irizarry et al., Exploration, normalization, and summaries of high density oligonucleotide array probe level data. Biostatistics. 2003; 4:249-264; Irizarry et al., Summaries of Affymetrix GeneChip probe level data. Nucleic Acids Res. 2003; 31:e15). Quantification of relative differences in gene expression among the groups of interest was accomplished using AffylmGUI, the sister package of limmaGUI (Wettenhall et al., limmaGUI: a graphical user interface for linear modeling of microarray data. Bioinformatics. 2004; 20:3705-3706; Wettenhall et al., affylmGUI: a graphical user interface for linear modeling of single channel microarray data. Bioinformatics. 2006; 22:897-899). AffylmGUI reads the raw Affymetrix CEL files directly, summarizes the gene expression values using RMA, and then uses LIMMA to identify statistically significant differences in gene expression (Smyth, Linear models and empirical bayes methods for assessing differential expression in microarray experiments. Stat Appl Genet Mol Biol. 2004; 3:Article3). LIMMA fits a linear model for every gene (like ANOVA or multiple regression analysis), and adjusts P values for multiple testings (Smyth, Linear models and empirical bayes methods for assessing differential expression in microarray experiments. Stat Appl Genet Mol Biol. 2004; 3:Article3). Differentially expressed genes were identified with a fold change >1.8.
To uncover enriched processes, data sets were analyzed by DAVID (Database for Annotation, Visualization and Integrated Discovery), a web-based tool that provides statistical methods for identifying over-represented biological themes and pathways within diverse and disparate gene lists (Dennis et al., DAVID: Database for Annotation, Visualization, and Integrated Discovery. Genome Biol. 2003; 4:3). DAVID also identifies over-represented biological themes in terms of their Gene Ontology (GO) terms and provides tools to visualize the distribution of genes on BioCarta and KFGG pathway maps. (Ashburner et al., Gene ontology: tool for the unification of biology. The Gene Ontology Consortium. Nat Genet. 2000; 25:25-29). GO provides consistent descriptions of genes in terms of biological processes and molecular function. Gene-enrichment analysis computes a modified Fisher exact p-value by comparing the ontological themes identified in our data set to total possible ontological processes present on the U133A chip.

Structure (SMILES): CCO [ethanol]
- effect on c-kit expression (c-kit): does not appear to affect c-kit expression
- reduction in proliferation rate (Human AFSC [1]; 25 mM ethanol, relative to cells without ethanol): 22%
- reduction in the rate of proliferation (Human AFSC [1]; 100 mM ethanol, relative to cells without ethanol): 33%
- effect on rate of proliferation (Human AFSC [1]; 25-100 mM ethanol): dose-dependent reduction in the rate of proliferation
- calcium deposition (Human AFSC [2]; 100 mM ethanol during first 48 hours of osteogenic differentiation, day 23, non-exposed AFSC 77.40±26.85): 155.06 ± 75.85 µg/mL and 155.1 ± 75.8 µg/mL
- effect on cell number (Human AFSC [2]; cells grown to confluency, 24 and 48 hours of ethanol and bone differentiation (data not shown)): no effect on cell number
- ethanol concentration present in the culture media [3]: did not change
- effect on cell viability (Human AFSC [4]): did not have a significant effect on cell viability
- effect on alkaline phosphatase activity [5]: no statistically significant effect on alkaline phosphatase activity
- increase in mRNA expression of osteopontin (osteopontin; 24 hours, growth media, vs control AFSC): 2.2 fold
- increase in mRNA expression of osteopontin (osteopontin; 24 hours, osteogenic media): 2 fold
- increase in mRNA expression of osteopontin (osteopontin; 48 hours, growth media, vs control AFSC): 2.8 fold change
- Basic fibroblast growth factor/FGF2 expression fold change ([6]; growth media): −2.0 fold change
- number of genes down-regulated in response to ethanol ([6]; growth media): 16 genes
- number of genes up-regulated in response to ethanol ([6]; growth media): 65 genes
- Count of down-regulated genes: anatomical structure development ([6]; gene ontology category): 6
- Count of down-regulated genes: circulatory system process ([6]; gene ontology category): 3
- Count of down-regulated genes: embryonic development ([6]; gene ontology category): 3
- Count of down-regulated genes: glucose transport ([6]; gene ontology category): 2
- Count of down-regulated genes: multi-organism process ([6]; gene ontology category): 3
- Count of down-regulated genes: negative regulation of cellular process ([6]; gene ontology category): 6
- Count of down-regulated genes: regulation of biological quality ([6]; gene ontology category): 4
- Count of up-regulated genes: IGF receptor signaling pathway ([6]; gene ontology category): 2
- Count of up-regulated genes: biomineral & ossification ([6]; gene ontology category): 5
- Count of up-regulated genes: blood vessel morphogenesis ([6]; gene ontology category): 4
- Count of up-regulated genes: developmental process ([6]; gene ontology category): 17
- Count of up-regulated genes: organ development ([6]; gene ontology category): 12
- Count of up-regulated genes: organ morphogenesis ([6]; gene ontology category): 7
- Count of up-regulated genes: reproductive developmental process ([6]; gene ontology category): 4
- Count of up-regulated genes: skeletal development ([6]; gene ontology category): 5
- Count of up-regulated genes: system development ([6]; gene ontology category): 13
- Count of up-regulated genes: tyrosine kinase signaling pathway ([6]; gene ontology category): 4
